One test has as its target CDK6/Cyclin D3 (Homo sapiens (Human), UniProt Q00534). Kind of test: CDK6/Cyclin D3 kinase TR-FRET inhibition assay. Format: biochemical. Conditions: 1 mM ATP, Rb (Ser780)-biotin substrate, read-out: CDK6D3 IC50. The method, then: (§1) Compounds disclosed herein were tested for inhibition of CDK4/Cyclin D1 or CDK6/Cyclin D3 kinase in an assay based on the time-resolved fluorescence-resonance energy transfer (TR-FRET) methodology. The assay was carried out in 384-well low volume black plates in a reaction mixture containing CDK4/Cyclin D1 or CDK6/Cyclin D3, 1 mM ATP, 0.15 μM Rb (Ser780)-biotin substrate and 0-10 μM compound in buffer containing 50 mM HEPES pH7.0, 0.02% NaN3, 0.01% BSA, 0.1 mM Orthovanadate, 50 mM MgCl2, 1 mM DTT and 0.005% Tween-20. The kinase was incubated with compound for 60 minutes at room temperature and the reaction was initiated by the addition of ATP and Rb (Ser780)-biotin substrate. After reaction at room temperature for 120 minutes, an equal volume of stop/detection solution was added according to the manufacture's instruction (Cisbio Bioassays). The stop/detection solution contained Streptavidin-XL665 and Anti-pRb (Ser780) mAb-Eu Cryptate in Detection buffer (Cisbio Bioassays). Plates were incubated at room temperature for 60 minutes, and the TR-FRET signals (ex337 nm, em665 nm/620 nm) were recorded on a PHERAstar FSX plate reader (BMG Labtech). The inhibition percentage of CDK4/Cyclin D1 or CDK6/Cyclin D3 kinase activity in presence of increasing concentrations of compounds was calculated based on the ratio of fluorescence at 665 nm to that at 620 nm. The IC50 for each compound was derived from fitting the data to the four-parameter logistic equation by Dotmatics.
For orientation: Time-resolved FRET reads energy transfer from a long-lived donor to a nearby acceptor.

Another test addresses CDK4/Cyclin D1 (Homo sapiens (Human), UniProt P11802). The test is described as follows: CDK4/Cyclin D1 kinase TR-FRET inhibition assay. Format: biochemical. Conditions: 1 mM ATP, Rb (Ser780)-biotin substrate, read-out: CDK4D1 IC50. The method, then:
as §1

This is an account of results in patent publication US20240300937A1, “Substituted 6-(Pyrimidin-4-yl)Quinoline Compounds as Cyclin Dependent Kinase Inhibitors” (BeiGene, Ltd., priority 2022, published 2024).

A word on the IC50: it is the concentration needed to halve the response being measured.

Sequence of CDK4/Cyclin D1 (P11802 whole entry): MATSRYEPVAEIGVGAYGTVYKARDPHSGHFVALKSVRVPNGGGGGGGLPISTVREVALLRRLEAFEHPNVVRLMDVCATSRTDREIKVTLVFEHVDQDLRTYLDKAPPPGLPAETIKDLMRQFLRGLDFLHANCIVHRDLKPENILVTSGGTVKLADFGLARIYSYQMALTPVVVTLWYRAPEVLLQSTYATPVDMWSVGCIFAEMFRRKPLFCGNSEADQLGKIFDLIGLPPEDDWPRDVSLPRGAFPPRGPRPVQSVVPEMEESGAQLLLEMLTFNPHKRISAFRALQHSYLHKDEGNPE
Sequence of CDK4/Cyclin D1 (P24385 whole entry partner): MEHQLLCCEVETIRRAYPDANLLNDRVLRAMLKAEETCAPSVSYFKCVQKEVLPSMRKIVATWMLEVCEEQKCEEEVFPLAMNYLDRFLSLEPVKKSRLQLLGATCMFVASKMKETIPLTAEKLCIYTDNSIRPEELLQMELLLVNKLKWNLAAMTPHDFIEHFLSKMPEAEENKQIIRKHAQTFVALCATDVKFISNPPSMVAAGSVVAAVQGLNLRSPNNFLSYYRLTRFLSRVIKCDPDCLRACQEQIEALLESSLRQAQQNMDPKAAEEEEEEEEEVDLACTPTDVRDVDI
Sequence of CDK6/Cyclin D3 (Q00534 whole entry): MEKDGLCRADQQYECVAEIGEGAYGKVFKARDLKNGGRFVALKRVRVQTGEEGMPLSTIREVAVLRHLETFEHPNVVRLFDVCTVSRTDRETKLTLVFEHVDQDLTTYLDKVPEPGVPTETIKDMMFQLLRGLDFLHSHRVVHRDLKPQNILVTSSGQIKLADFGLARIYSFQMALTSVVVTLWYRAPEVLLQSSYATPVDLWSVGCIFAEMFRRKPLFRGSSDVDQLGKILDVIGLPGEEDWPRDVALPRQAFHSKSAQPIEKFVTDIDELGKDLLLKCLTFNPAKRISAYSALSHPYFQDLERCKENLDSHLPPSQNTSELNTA
Sequence of CDK6/Cyclin D3 (P30281 whole entry partner): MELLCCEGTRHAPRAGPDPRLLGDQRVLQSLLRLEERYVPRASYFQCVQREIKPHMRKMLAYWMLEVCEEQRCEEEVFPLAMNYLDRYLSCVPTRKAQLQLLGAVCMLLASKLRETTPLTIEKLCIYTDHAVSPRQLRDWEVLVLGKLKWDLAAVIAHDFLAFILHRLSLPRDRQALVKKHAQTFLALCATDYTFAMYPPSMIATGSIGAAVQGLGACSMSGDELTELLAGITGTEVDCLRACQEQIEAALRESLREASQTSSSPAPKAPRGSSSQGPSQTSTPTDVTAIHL

Turning to `CC(C)c1cc(C(C)(C)O)nc2c(F)cc(-c3nc(N[C@@H]4CCOC[C@H]4O)ncc3Cl)cc12` [Example 208, (3S,4R)-4-((5-chloro-4-(8-fluoro-2-(2-hydroxypropan-2-yl)-4-isopropylquinolin-6-yl)pyrimidin-2-yl)amino)tetrahydro-2H-pyran-3-ol], the IC50 on CDK6/Cyclin D3 came out at 497 nM; at CDK4/Cyclin D1, 146 nM.

For the compound `CC(C)c1c(CN)cnc2ccc(-c3nc(N[C@@H]4CCOC[C@H]4O)ncc3F)cc12` [Example 38, (3S,4R)-4-((4-(3-(aminomethyl)-4-isopropylquinolin-6-yl)-5-fluoropyrimidin-2-yl)amino)tetrahydro-2H-pyran-3-ol], the IC50 at CDK6/Cyclin D3 was 176 nM; on CDK4/Cyclin D1, 4.4 nM.

`CC(C)c1c(CNC[C@H]2CCOC2)cnc2ccc(-c3nc(N[C@@H]4CCOC[C@H]4O)ncc3F)cc12` [Example 27, (3S,4R)-4-((5-fluoro-4-(4-isopropyl-3-(((((R)-tetrahydrofuran-3-yl)methyl)amino)methyl)quinolin-6-yl)pyrimidin-2-yl)amino)tetrahydro-2H-pyran-3-ol]: the IC50 worked out at 828 nM at CDK6/Cyclin D3 and 23 nM on CDK4/Cyclin D1.

As for `CC(C)c1c(CN2C3CCCC2CC(O)C3)cnc2ccc(-c3nc(N[C@@H]4CCOC[C@H]4O)ncc3F)cc12` (stereo partly drawn) [Example 60, (1R,3R,5S)-9-((6-(5-fluoro-2-(((3S,4R)-3-hydroxytetrahydro-2H-pyran-4-yl)amino)pyrimidin-4-yl)-4-isopropylquinolin-3-yl)methyl)-9-azabicyclo[3.3.1]nonan-3-ol], the IC50 on CDK6/Cyclin D3 amounted to 585 nM; on CDK4/Cyclin D1 it was 15 nM.

For the compound `CC(C)c1nc(C(C)(C)O)nc2ccc(-c3nc(N[C@@H]4CCOC[C@H]4O)ncc3F)cc12` [Example 207, (3S,4R)-4-((5-fluoro-4-(2-(2-hydroxypropan-2-yl)-4-isopropylquinazolin-6-yl)pyrimidin-2-yl)amino)tetrahydro-2H-pyran-3-ol], the IC50 came out at 3020 nM on CDK6/Cyclin D3 and 536 nM on CDK4/Cyclin D1.

Take `CC(C)c1c(CN2CCC[C@H](O)C2)cnc2ccc(-c3nc(N[C@@H]4CCOC[C@H]4O)ncc3F)cc12` [Example 57, (S)-1-((6-(5-fluoro-2-(((3S,4R)-3-hydroxytetrahydro-2H-pyran-4-yl)amino)pyrimidin-4-yl)-4-isopropylquinolin-3-yl)methyl)piperidin-3-ol]: the IC50 on CDK6/Cyclin D3 worked out at 486 nM; on CDK4/Cyclin D1, 18 nM.

With `CC(C)c1c(CNC2CCOC2)cnc2ccc(-c3nc(N[C@@H]4CCOC[C@H]4O)ncc3F)cc12` (stereo partly drawn) [Example 21, (3S,4R)-4-((5-fluoro-4-(4-isopropyl-3-(((tetrahydrofuran-3-yl)amino)methyl)quinolin-6-yl)pyrimidin-2-yl)amino)tetrahydro-2H-pyran-3-ol], the results for the IC50 at CDK6/Cyclin D3 and at CDK4/Cyclin D1 were 495 nM and 15 nM, respectively.

As for `CC(C)c1c(CN2CCOCC2)cnc2ccc(-c3nc(N[C@@H]4CCOC[C@H]4O)ncc3F)cc12` [Example 17, (3S,4R)-4-((5-fluoro-4-(4-isopropyl-3-(morpholinomethyl)quinolin-6-yl)pyrimidin-2-yl)amino)tetrahydro-2H-pyran-3-ol], the values for the IC50 on CDK6/Cyclin D3 and at CDK4/Cyclin D1 were 187 nM and 11 nM, respectively.

Regarding `CC(C)c1c(CO)cnc2c(F)cc(-c3nc(N[C@@H]4CCOC[C@H]4O)ncc3F)cc12` [Example 51, (3S,4R)-4-((5-fluoro-4-(8-fluoro-3-(hydroxymethyl)-4-isopropylquinolin-6-yl)pyrimidin-2-yl)amino)tetrahydro-2H-pyran-3-ol], the figures for the IC50 at CDK6/Cyclin D3 and at CDK4/Cyclin D1 were 67.2 nM and 4.2 nM, respectively.

Consider `CC(C)c1c(C(C)(C)O)cnc2ccc(-c3nc(N[C@@H]4CCOC[C@H]4O)ncc3F)cc12` [Example 2], for which the 50% inhibitory concentration (IC50) turned out to be 69 nM on CDK6/Cyclin D3 and 4.6 nM on CDK4/Cyclin D1.

As to `CC(C)c1c(CNC2CC2)cnc2ccc(-c3nc(N[C@@H]4CCOC[C@H]4O)ncc3F)cc12` [Example 25, (3S,4R)-4-((4-(3-((cyclopropylamino)methyl)-4-isopropylquinolin-6-yl)-5-fluoropyrimidin-2-yl)amino)tetrahydro-2H-pyran-3-ol], the IC50 on CDK6/Cyclin D3 was 224 nM; at CDK4/Cyclin D1 it was 8.3 nM.

For the compound `CC(C)c1nc(C(C)(C)O)nc2c(F)cc(-c3nc(N[C@@H]4CCOC[C@H]4O)ncc3Cl)cc12` [Example 209, (3S,4R)-4-((5-chloro-4-(8-fluoro-2-(2-hydroxypropan-2-yl)-4-isopropylquinazolin-6-yl)pyrimidin-2-yl)amino)tetrahydro-2H-pyran-3-ol], the results for the IC50 at CDK6/Cyclin D3 and at CDK4/Cyclin D1 were 4990 nM and 1770 nM, respectively.

On to `CC(C)NCc1cnc2ccc(-c3nc(N[C@@H]4CCOC[C@H]4O)ncc3F)cc2c1C(C)C` [Example 22, (3S,4R)-4-((5-fluoro-4-(4-isopropyl-3-((isopropylamino)methyl)quinolin-6-yl)pyrimidin-2-yl)amino)tetrahydro-2H-pyran-3-ol], for which the IC50 on CDK6/Cyclin D3 came out at 398 nM; on CDK4/Cyclin D1 it was 7.1 nM.

With `CC(C)c1c(CN2CCOCC23CC3)cnc2ccc(-c3nc(N[C@@H]4CCOC[C@H]4O)ncc3F)cc12` [Example 36, (3S,4R)-4-((4-(3-((7-oxa-4-azaspiro[2.5]octan-4-yl)methyl)-4-isopropylquinolin-6-yl)-5-fluoropyrimidin-2-yl)amino)tetrahydro-2H-pyran-3-ol], the IC50 worked out at 224 nM on CDK6/Cyclin D3 and 14 nM at CDK4/Cyclin D1.

Take `CC(C)c1ccnc2ccc(-c3nc(N[C@@H]4CCOC[C@H]4O)ncc3F)cc12` [Example 8, (3S,4R)-4-((5-fluoro-4-(4-isopropylquinolin-6-yl)pyrimidin-2-yl)amino)tetrahydro-2H-pyran-3-ol]: the IC50 on CDK6/Cyclin D3 stood at 252 nM; on CDK4/Cyclin D1 it was 14 nM.

With `CC(C)c1ccnc2ccc(-c3nc(N[C@@H]4CCOC[C@H]4O)ncc3Cl)cc12` [Example 4, (3S,4R)-4-((5-chloro-4-(4-isopropylquinolin-6-yl)pyrimidin-2-yl)amino)tetrahydro-2H-pyran-3-ol], the values for the 50% inhibitory concentration (IC50) at CDK6/Cyclin D3 and on CDK4/Cyclin D1 were 418 nM and 38 nM, respectively.

For `CC(C)c1c(CN[C@H]2CCCOC2)cnc2ccc(-c3nc(N[C@@H]4CCOC[C@H]4O)ncc3F)cc12` [Example 37, (3S,4R)-4-((5-fluoro-4-(4-isopropyl-3-((((S)-tetrahydro-2H-pyran-3-yl)amino)methyl)quinolin-6-yl)pyrimidin-2-yl)amino)tetrahydro-2H-pyran-3-ol], the IC50 at CDK6/Cyclin D3 came to 945 nM; on CDK4/Cyclin D1 it was 27 nM.

Turning to `CC(C)c1c(CN(C)C)cnc2ccc(-c3nc(N[C@@H]4CCOC[C@H]4O)ncc3F)cc12` [Example 11, (3S,4R)-4-((4-(3-((dimethylamino)methyl)-4-isopropylquinolin-6-yl)-5-fluoropyrimidin-2-yl)amino)tetrahydro-2H-pyran-3-ol], the IC50 on CDK6/Cyclin D3 turned out to be 567 nM; at CDK4/Cyclin D1, 21 nM.

As to `CC(C)c1c([C@H](C)N2CC[C@@H](F)C2)cnc2ccc(-c3nc(N[C@@H]4CCOC[C@H]4O)ncc3F)cc12` [Example 47, (3S,4R)-4-((5-fluoro-4-(3-((S)-1-((R)-3-fluoropyrrolidin-1-yl)ethyl)-4-isopropylquinolin-6-yl)pyrimidin-2-yl)amino)tetrahydro-2H-pyran-3-ol], the IC50 at CDK6/Cyclin D3 was found to be 250 nM; at CDK4/Cyclin D1, 25 nM.

With `CC(C)c1c(CN[C@@H]2CCCOC2)cnc2c(F)cc(-c3nc(N[C@@H]4CCOC[C@H]4O)ncc3F)cc12` [Example 53, (3S,4R)-4-((5-fluoro-4-(8-fluoro-4-isopropyl-3-((((R)-tetrahydro-2H-pyran-3-yl)amino)methyl)quinolin-6-yl)pyrimidin-2-yl)amino)tetrahydro-2H-pyran-3-ol], the values for the IC50 on CDK6/Cyclin D3 and on CDK4/Cyclin D1 were 348 nM and 12 nM, respectively.

On to `CC(C)c1c(CN[C@@H]2CCOC2)cnc2ccc(-c3nc(N[C@@H]4CCOC[C@H]4O)ncc3F)cc12` [Example 35, (3S,4R)-4-((5-fluoro-4-(4-isopropyl-3-((((R)-tetrahydrofuran-3-yl)amino)methyl)quinolin-6-yl)pyrimidin-2-yl)amino)tetrahydro-2H-pyran-3-ol], for which the results for the IC50 at CDK6/Cyclin D3 and at CDK4/Cyclin D1 were 592 nM and 16 nM, respectively.

Consider `Cc1nc2ccc(-c3nc(N[C@@H]4CCOC[C@H]4O)ncc3F)cc2c(C(C)C)c1C` [Example 7, (3S,4R)-4-((5-fluoro-4-(4-isopropyl-2,3-dimethylquinolin-6-yl)pyrimidin-2-yl)amino)tetrahydro-2H-pyran-3-ol], for which the results for the IC50 at CDK6/Cyclin D3 and on CDK4/Cyclin D1 were 528 nM and 44 nM, respectively.

Turning to `CC(C)c1c([C@@H](C)N)cnc2ccc(-c3nc(N[C@@H]4CCOC[C@H]4O)ncc3F)cc12` [Example 56, (3S,4R)-4-((4-(3-((R)-1-aminoethyl)-4-isopropylquinolin-6-yl)-5-fluoropyrimidin-2-yl)amino)tetrahydro-2H-pyran-3-ol], the concentration for half-maximal inhibition (IC50) worked out at 214 nM at CDK6/Cyclin D3 and 3.5 nM on CDK4/Cyclin D1.

In the case of `COCc1cnc2ccc(-c3nc(N[C@@H]4CCOC[C@H]4O)ncc3F)cc2c1C(C)C` [Example 31, (3S,4R)-4-((5-fluoro-4-(4-isopropyl-3-(methoxymethyl)quinolin-6-yl)pyrimidin-2-yl)amino)tetrahydro-2H-pyran-3-ol], the IC50 was 275 nM on CDK6/Cyclin D3 and 25 nM on CDK4/Cyclin D1.
